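48-hour exposure; five concentrations; linearly interpolated endpoints. TGI marks complete inhibition of growth.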
Tests used:
Assay in all cases: growth of human tumour cells (NCI), 48 h
BT-549 breast = system: BT-549 breast
LOX IMVI melanoma = system: LOX IMVI melanoma
CCRF-CEM leukemia = system: CCRF-CEM leukemia
HOP-62 NSCLC = system: HOP-62 NSCLC
MALME-3M melanoma = system: MALME-3M melanoma
MCF7 breast = system: MCF7 breast
SK-MEL-5 melanoma = system: SK-MEL-5 melanoma
OVCAR-4 ovarian = system: OVCAR-4 ovarian
COLO 205 colon = system: COLO 205 colon
MDA-MB-435 = system: MDA-MB-435
SNB-19 CNS = system: SNB-19 CNS
PC-3 prostate = system: PC-3 prostate
NCI-H23 lung = system: NCI-H23 lung
IGROV1 ovarian = system: IGROV1 ovarian
DU-145 prostate = system: DU-145 prostate
OVCAR-3 ovarian = system: OVCAR-3 ovarian
HL-60(TB) leukemia = system: HL-60(TB) leukemia
OVCAR-8 ovarian = system: OVCAR-8 ovarian
A498 renal = system: A498 renal
EKVX NSCLC = system: EKVX NSCLC

| SMILES | TGI (BT-549 breast) [µM] | TGI (LOX IMVI melanoma) [µM] | TGI (CCRF-CEM leukemia) [µM] | TGI (HOP-62 NSCLC) [µM] | TGI (MALME-3M melanoma) [µM] | TGI (MCF7 breast) [µM] | TGI (SK-MEL-5 melanoma) [µM] | TGI (OVCAR-4 ovarian) [µM] | TGI (COLO 205 colon) [µM] | TGI (MDA-MB-435) [µM] | TGI (SNB-19 CNS) [µM] | TGI (PC-3 prostate) [µM] | TGI (NCI-H23 lung) [µM] | TGI (IGROV1 ovarian) [µM] | TGI (DU-145 prostate) [µM] | TGI (OVCAR-3 ovarian) [µM] | TGI (HL-60(TB) leukemia) [µM] | TGI (OVCAR-8 ovarian) [µM] | TGI (A498 renal) [µM] | TGI (EKVX NSCLC) [µM] |
| --- | --- | --- | --- | --- | --- | --- | --- | --- | --- | --- | --- | --- | --- | --- | --- | --- | --- | --- | --- | --- |
| Cc1cc(C)n(C2OC(CO)C(O)C(O)C2O)c(=S)c1C#N (stereo not drawn) | > 100 | > 100 | > 100 | > 100 | > 100 | > 100 | > 100 | > 100 | > 100 | > 100 | > 100 | > 100 | > 100 | > 100 | > 100 | > 100 | > 100 | > 100 | > 100 | – |
| O=c1[nH]nc(Cc2ccccc2)[nH]1 | > 100 | > 100 | > 100 | > 100 | > 100 | > 100 | > 100 | > 100 | > 100 | > 100 | > 100 | > 100 | > 100 | > 100 | > 100 | > 100 | > 100 | > 100 | > 100 | > 100 |
| Cc1ccccc1N=Nc1ccc(N/N=C2/CCCNC2=O)c(C)c1 | > 100 | > 100 | > 100 | > 100 | > 100 | > 100 | > 100 | > 100 | > 100 | > 100 | > 100 | > 100 | > 100 | > 100 | > 100 | – | > 100 | – | > 100 | > 100 |
| COc1ccc(CCN2CCN(CCc3ccc(OC)cc3)CC2)cc1 | > 100 | > 100 | > 100 | > 100 | > 100 | > 100 | > 100 | > 100 | > 100 | > 100 | > 100 | > 100 | > 100 | > 100 | > 100 | > 100 | > 100 | > 100 | > 100 | > 100 |
| Cc1ccc(NC(=S)N/N=C(/c2ccccc2)c2ccccn2)cc1 | 19.1 | 14.9 | – | 17.9 | 9.23 | 15.7 | 5.08 | 16.6 | 2.89 | 14.7 | 22.2 | 20.9 | 26.7 | 18.9 | 18.8 | 12.5 | 2.26 | 14 | 11.2 | 12.9 |
| CCn1c2ccccc2n2c(=O)c3c(c(C#N)c12)CCCC3 | > 100 | > 100 | > 100 | – | > 100 | > 100 | > 100 | > 100 | > 100 | > 100 | > 100 | > 100 | > 100 | > 100 | > 100 | > 100 | > 100 | > 100 | > 100 | > 100 |
| CN(/N=C/c1ccc(OCc2cccc(COc3ccc(C=O)cc3)n2)cc1)c1cnn(-c2ccc(Cl)cc2Cl)c(=O)c1Cl | > 100 | > 100 | > 100 | > 100 | > 100 | > 100 | > 100 | > 100 | > 100 | > 100 | > 100 | > 100 | > 100 | > 100 | > 100 | > 100 | > 100 | > 100 | > 100 | > 100 |
| C=C1CC[C@H](O)C(C)(C)[C@@H]1CC/C(C)=C/CC/C=C(\C)CC/C=C(\C)CCC=C(C)C | > 100 | > 100 | > 100 | > 100 | > 100 | > 100 | > 100 | > 100 | > 100 | > 100 | > 100 | > 100 | > 100 | > 100 | > 100 | > 100 | 69 | > 100 | > 100 | > 100 |
| Cc1cccc2c(N)c3cccc(C(=O)NCC[N+](C)(C)Cc4c([N+](=O)[O-])ncn4C)c3nc12 | > 100 | 35.6 | > 100 | > 50.9 | > 100 | > 47.3 | > 88.8 | > 72.5 | > 100 | > 100 | > 100 | > 100 | > 70.2 | > 100 | > 100 | > 100 | > 44.4 | > 95.5 | > 100 | > 100 |
| O=c1[nH]c(Nc2nc3ccccc3[nH]2)nc2c1CCC2 | > 100 | > 100 | > 100 | > 100 | > 100 | > 100 | > 100 | > 100 | > 100 | > 100 | > 100 | > 100 | > 100 | > 100 | > 100 | > 100 | > 100 | > 100 | > 100 | – |
| CC1ON2CCCC2[C@H]1C(=O)N1C2CC3CCC2(CS1(=O)=O)C3(C)C (stereo partly drawn) | > 100 | > 100 | > 100 | > 100 | > 100 | > 100 | > 100 | > 100 | > 100 | > 100 | – | > 100 | > 100 | > 100 | > 100 | > 100 | > 100 | > 100 | > 100 | > 100 |

Source: PubChem BioAssay (NCI)
